According to ChEMBL document CHEMBL1147701, “Novel 4-anilinoquinazolines with C-6 carbon-linked side chains: synthesis and structure-activity relationship of a series of potent, orally active, EGF receptor tyrosine kinase inhibitors” (Bioorg Med Chem Lett, 2006):

Assays:
[1] = biological target: Mitogen-activated protein kinase 1 (Homo sapiens, UniProt P28482); assay: Inhibition of MAPK
[2] = biological target: MAP kinase p38 (Homo sapiens, UniProt O15264+Q15759+Q16539+P53778)
[3] = biological target: Glycogen synthase kinase-3 beta (Homo sapiens, UniProt P49841); assay: Inhibition of GSK3-beta
Sequence of Glycogen synthase kinase-3 beta (P49841 whole entry): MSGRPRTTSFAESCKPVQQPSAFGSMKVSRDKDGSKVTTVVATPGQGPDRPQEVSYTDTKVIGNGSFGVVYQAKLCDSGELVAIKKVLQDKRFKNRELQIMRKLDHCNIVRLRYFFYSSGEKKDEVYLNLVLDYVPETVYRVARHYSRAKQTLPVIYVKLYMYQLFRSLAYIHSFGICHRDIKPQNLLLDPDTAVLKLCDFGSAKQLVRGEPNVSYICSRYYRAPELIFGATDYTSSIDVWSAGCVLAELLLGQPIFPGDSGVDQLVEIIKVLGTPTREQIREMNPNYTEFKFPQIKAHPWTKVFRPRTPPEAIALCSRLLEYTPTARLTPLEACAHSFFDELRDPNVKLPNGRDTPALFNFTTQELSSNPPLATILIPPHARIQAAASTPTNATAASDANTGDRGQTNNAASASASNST

[4] = biological target: Vascular endothelial growth factor receptor 2 (Homo sapiens, UniProt P35968)
Sequence of Vascular endothelial growth factor receptor 2 (P35968 whole entry): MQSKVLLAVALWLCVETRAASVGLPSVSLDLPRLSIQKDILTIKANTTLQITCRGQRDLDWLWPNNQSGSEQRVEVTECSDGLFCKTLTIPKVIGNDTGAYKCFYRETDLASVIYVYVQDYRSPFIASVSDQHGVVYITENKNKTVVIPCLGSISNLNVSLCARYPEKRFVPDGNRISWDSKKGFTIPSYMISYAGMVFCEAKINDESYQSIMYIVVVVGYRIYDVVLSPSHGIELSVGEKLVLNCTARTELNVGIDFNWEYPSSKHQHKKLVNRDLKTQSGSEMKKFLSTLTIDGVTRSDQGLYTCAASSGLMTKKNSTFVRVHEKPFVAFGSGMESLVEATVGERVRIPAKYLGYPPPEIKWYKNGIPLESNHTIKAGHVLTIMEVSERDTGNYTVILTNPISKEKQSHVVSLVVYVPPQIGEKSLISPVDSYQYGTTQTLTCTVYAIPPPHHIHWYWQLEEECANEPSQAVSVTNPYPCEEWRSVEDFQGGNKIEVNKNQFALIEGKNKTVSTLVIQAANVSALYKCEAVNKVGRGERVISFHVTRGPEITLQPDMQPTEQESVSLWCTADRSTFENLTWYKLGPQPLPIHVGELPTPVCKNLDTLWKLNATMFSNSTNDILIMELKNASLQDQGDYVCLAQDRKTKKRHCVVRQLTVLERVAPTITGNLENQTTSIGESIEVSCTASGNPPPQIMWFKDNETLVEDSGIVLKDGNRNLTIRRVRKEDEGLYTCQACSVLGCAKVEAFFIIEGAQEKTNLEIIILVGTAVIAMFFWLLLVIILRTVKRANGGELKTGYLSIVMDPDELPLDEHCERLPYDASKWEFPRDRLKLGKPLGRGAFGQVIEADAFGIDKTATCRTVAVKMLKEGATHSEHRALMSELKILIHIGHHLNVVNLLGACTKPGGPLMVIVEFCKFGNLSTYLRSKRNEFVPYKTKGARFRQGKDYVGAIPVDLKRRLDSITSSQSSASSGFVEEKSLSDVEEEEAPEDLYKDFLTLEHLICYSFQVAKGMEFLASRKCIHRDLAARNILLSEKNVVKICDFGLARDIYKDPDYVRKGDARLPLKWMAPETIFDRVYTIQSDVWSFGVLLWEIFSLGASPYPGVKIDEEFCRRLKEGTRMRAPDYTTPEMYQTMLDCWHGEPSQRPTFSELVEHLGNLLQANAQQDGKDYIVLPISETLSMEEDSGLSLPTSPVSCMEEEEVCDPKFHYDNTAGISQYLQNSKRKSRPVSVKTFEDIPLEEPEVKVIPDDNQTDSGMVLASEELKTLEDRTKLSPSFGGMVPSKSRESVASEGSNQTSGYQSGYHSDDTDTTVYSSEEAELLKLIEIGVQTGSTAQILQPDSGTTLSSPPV

[5] = biological target: T1, Serine/threonine-protein kinase Sgk1 (Homo sapiens, UniProt O00141); assay: Inhibition of SGK
T1 sequence (O00141 whole entry): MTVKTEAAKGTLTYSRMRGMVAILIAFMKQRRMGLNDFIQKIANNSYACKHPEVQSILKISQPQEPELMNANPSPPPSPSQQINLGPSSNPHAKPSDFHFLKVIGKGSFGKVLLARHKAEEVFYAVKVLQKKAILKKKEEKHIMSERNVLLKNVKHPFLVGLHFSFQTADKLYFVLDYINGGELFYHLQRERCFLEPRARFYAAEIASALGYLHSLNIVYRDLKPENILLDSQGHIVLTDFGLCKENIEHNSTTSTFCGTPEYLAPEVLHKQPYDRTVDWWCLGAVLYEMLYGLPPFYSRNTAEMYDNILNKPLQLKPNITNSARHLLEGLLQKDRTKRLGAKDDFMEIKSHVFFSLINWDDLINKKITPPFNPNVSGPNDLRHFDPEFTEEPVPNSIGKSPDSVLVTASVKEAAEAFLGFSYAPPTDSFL

[6] = biological target: Proto-oncogene tyrosine-protein kinase Src (Homo sapiens, UniProt P12931); assay: Inhibition of Src
Sequence of Proto-oncogene tyrosine-protein kinase Src (P12931 2-536 limits assumed): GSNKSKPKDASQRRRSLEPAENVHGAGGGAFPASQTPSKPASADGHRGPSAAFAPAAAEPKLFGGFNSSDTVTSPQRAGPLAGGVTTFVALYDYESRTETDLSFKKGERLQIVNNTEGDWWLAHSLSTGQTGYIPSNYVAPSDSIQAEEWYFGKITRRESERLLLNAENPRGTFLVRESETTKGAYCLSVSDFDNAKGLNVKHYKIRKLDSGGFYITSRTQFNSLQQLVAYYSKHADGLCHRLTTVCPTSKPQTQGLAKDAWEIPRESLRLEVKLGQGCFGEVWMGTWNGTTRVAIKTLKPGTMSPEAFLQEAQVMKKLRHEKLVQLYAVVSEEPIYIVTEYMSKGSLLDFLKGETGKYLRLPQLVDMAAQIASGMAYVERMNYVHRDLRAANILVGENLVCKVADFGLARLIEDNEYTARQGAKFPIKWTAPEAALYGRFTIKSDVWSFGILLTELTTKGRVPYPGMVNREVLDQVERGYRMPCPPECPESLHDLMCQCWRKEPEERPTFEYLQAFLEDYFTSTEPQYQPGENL

[7] = biological target: T2, Serine/threonine-protein kinase Chk1 (Homo sapiens, UniProt O14757); assay: Inhibition of CHK1
T2 sequence (O14757 whole entry): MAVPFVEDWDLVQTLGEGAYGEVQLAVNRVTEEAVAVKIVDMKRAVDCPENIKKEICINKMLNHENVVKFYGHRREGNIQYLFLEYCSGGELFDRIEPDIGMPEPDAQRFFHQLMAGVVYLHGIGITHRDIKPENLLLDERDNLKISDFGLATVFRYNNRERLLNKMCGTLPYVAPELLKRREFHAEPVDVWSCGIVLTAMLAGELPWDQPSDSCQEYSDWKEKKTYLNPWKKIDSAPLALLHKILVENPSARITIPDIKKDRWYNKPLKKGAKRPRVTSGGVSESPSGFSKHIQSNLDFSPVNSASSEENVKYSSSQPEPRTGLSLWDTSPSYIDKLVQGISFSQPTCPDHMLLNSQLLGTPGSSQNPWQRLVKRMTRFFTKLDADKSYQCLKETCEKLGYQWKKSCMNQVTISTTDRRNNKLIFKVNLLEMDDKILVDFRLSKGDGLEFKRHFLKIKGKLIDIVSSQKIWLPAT

[8] = biological target: Rho-associated protein kinase 2 (Homo sapiens, UniProt O75116); assay: Inhibition of ROCK2
Sequence of Rho-associated protein kinase 2 (O75116 whole entry): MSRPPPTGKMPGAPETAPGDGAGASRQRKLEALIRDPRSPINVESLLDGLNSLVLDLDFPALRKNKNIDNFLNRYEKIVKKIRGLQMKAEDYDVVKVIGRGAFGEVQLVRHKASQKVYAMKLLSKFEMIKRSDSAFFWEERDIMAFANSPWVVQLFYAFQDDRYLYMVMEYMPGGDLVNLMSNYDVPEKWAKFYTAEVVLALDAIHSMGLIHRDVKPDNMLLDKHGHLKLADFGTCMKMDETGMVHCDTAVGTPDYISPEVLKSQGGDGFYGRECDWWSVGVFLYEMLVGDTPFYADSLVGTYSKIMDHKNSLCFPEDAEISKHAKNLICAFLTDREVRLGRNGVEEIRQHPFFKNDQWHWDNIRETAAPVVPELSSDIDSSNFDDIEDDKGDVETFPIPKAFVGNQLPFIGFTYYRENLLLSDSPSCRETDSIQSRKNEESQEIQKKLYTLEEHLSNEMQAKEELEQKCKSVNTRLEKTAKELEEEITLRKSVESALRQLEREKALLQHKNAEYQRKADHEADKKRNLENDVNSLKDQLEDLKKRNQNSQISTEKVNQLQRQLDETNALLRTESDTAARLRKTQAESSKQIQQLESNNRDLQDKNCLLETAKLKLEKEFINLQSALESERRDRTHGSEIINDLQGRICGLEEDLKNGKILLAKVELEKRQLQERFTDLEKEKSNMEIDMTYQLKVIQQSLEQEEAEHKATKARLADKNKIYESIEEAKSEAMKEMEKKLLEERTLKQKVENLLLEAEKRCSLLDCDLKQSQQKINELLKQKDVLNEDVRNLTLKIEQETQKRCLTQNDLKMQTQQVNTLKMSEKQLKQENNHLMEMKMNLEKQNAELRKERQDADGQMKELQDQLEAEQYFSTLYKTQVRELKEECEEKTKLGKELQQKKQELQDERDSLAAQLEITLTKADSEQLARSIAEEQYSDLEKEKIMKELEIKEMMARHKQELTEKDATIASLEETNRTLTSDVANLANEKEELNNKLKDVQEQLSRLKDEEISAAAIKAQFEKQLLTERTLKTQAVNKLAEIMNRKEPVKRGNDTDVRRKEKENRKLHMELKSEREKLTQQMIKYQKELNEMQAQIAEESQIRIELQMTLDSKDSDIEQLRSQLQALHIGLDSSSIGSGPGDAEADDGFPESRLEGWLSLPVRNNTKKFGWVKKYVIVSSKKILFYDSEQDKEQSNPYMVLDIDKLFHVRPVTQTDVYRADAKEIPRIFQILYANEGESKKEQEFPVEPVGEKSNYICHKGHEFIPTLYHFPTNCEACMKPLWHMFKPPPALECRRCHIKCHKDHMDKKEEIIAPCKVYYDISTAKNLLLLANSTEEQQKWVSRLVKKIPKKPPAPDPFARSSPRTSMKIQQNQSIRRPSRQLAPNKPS

[9] = biological target: AMP-activated protein kinase, AMPK; assay: Inhibition of AMPK; type: protein-complex assay
[10] = biological target: c-Jun N-terminal kinase, JNK (Homo sapiens, UniProt P45983+P53779+P45984); assay: Inhibition of JNK; type: protein assay
[11] = biological target: cAMP-dependent protein kinase (PKA) (Homo sapiens, UniProt P22694+P17612+P22612); assay: Inhibition of PKA; type: protein assay
[12] = Inhibition of CDK
[13] = biological target: Tyrosine-protein kinase Lck (Homo sapiens, UniProt P06239)
Sequence of Tyrosine-protein kinase Lck (P06239 whole entry): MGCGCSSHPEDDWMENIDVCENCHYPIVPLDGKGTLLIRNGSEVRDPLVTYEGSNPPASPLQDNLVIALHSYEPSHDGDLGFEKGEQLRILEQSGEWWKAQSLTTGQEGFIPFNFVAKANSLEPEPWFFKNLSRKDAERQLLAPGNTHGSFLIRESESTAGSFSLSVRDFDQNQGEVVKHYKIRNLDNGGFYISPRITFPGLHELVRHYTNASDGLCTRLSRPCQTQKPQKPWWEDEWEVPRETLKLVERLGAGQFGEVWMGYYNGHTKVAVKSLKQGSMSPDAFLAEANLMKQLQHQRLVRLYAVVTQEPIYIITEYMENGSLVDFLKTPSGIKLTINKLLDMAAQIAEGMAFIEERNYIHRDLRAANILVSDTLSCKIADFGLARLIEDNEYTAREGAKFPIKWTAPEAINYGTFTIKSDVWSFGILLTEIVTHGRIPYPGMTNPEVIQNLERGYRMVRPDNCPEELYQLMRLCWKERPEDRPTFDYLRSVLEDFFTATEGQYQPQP

Measured: IC50

Sequence of Mitogen-activated protein kinase 1 (P28482 whole entry): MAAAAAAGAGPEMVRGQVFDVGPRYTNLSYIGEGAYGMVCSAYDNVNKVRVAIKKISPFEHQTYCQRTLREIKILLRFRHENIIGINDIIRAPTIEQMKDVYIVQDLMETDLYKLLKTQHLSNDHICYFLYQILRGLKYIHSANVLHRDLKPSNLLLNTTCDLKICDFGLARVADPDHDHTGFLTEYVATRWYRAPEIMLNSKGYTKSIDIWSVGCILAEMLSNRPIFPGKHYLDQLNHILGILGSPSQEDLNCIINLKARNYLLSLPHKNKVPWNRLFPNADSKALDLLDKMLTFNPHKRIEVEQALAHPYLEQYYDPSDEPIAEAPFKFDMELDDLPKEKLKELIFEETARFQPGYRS

COc1cc2ncnc(Nc3cccc(Cl)c3F)c2cc1CN1CCN(C)CC1C(N)=O (stereo not given)
> 10 µM: [1] | [2] | [3] | [4] | [5] | [6] | [7] | [8] | [9] | [10] | [11]

COc1cc2ncnc(Nc3ccc(F)c(Cl)c3)c2cc1CN1CCC[C@H]1C(N)=O
> 10 µM: [1] | [2] | [3] | [12] | [4] | [5] | [6] | [7] | [8] | [9] | [10] | [11]

COc1cc2ncnc(Nc3cccc(Cl)c3F)c2cc1CN1CCC[C@@H]1C(N)=O
> 10 µM: [1] | [3] | [13] | [12] | [4] | [5] | [6] | [7] | [8] | [9] | [10] | [11]

CNC(=O)[C@@H](C)N(C)Cc1cc2c(Nc3cccc(Cl)c3F)ncnc2cc1OC
> 10 µM: [1] | [2] | [3] | [13] | [12] | [4] | [5] | [6] | [7] | [8] | [9] | [10] | [11]

COc1cc2ncnc(Nc3cccc(Cl)c3F)c2cc1CN(C)C1CCNC1=O (stereo not given)
> 10 µM: [1] | [2] | [3] | [4] | [5] | [6] | [7] | [8] | [9] | [10] | [11]

COc1cc2ncnc(Nc3cccc(Cl)c3F)c2cc1CN1CCC[C@H]1CC(N)=O
> 10 µM: [1] | [2] | [3] | [13] | [12] | [4] | [5] | [6] | [7] | [8] | [9] | [10] | [11]

COC[C@@H](C(N)=O)N(C)Cc1cc2c(Nc3cccc(Cl)c3F)ncnc2cc1OC
> 10 µM: [1] | [2] | [3] | [4] | [5] | [6] | [7] | [8] | [9] | [10] | [11]

CNC(=O)[C@H]1CCCN1Cc1cc2c(Nc3cccc(Cl)c3F)ncnc2cc1OC
> 10 µM: [1] | [2] | [3] | [4] | [5] | [6] | [7] | [8] | [9] | [10] | [11]

COc1cc2ncnc(Nc3ccc(F)c(Cl)c3)c2cc1CN1CCC[C@@H]1C(N)=O
> 10 µM: [1] | [2] | [3] | [12] | [4] | [5] | [6] | [7] | [8] | [9] | [10] | [11]

COc1cc2ncnc(Nc3cccc(Cl)c3F)c2cc1CN(C)[C@@H](CN(C)C)C(N)=O
> 10 µM: [1] | [2] | [3] | [13] | [12] | [4] | [5] | [6] | [7] | [8] | [9] | [10] | [11]

COc1cc2ncnc(Nc3cccc(Cl)c3F)c2cc1CN1CCC1C(N)=O (stereo not given)
> 10 µM: [1] | [2] | [3] | [4] | [5] | [6] | [7] | [8] | [9] | [10] | [11]

COc1cc2ncnc(Nc3cccc(Cl)c3F)c2cc1CN(C)[C@@H](CO)C(N)=O
> 10 µM: [1] | [2] | [3] | [4] | [5] | [6] | [7] | [8] | [9] | [10] | [11]

COCC[C@@H](C(N)=O)N(C)Cc1cc2c(Nc3cccc(Cl)c3F)ncnc2cc1OC
> 10 µM: [1] | [2] | [3] | [13] | [12] | [4] | [5] | [6] | [7] | [8] | [9] | [10] | [11]

COc1cc2ncnc(Nc3cccc(Cl)c3F)c2cc1CN(CCN(C)C)[C@@H](C)C(N)=O
> 10 µM: [1] | [3] | [13] | [4] | [5] | [6] | [7] | [8] | [9] | [10] | [11]
